How the values were obtained:
[1] = test system: mice with collagen arthritis; experiment: antiarthritic effect in mice with collagen arthritis; type: in vivo; details: considered on the basis of the rat adjuvant arthritis and mouse collagen arthritis results
Method: On the other hand, it is known that 3-[(1S)-1-(2-fluorobiphenyl-4-yl)ethyl]-5-{[amino(morpholin-4-yl)methylene]amino}isoxazole (hereinafter referred to also as “compound (I)” or “SMP-114”) is useful as, for example, an excellent medicament for treating autoimmune diseases, inflammatory diseases and the like.
It was 5 mg/kg (once-a-day oral administration) in the case of mice with collagen arthritis (F. Nishikaku, “Annals of the Rheumatic Diseases”, vol. 61 supplement 1, p. 194 (2002)).

[2] = repeated administration test on healthy male Japanese (7 days); type: in vivo, human
Method: AUC0-24 level of the agent in its repeated administration to humans A repeated administration test on healthy male Japanese of 20 to 40 years old was carried out. Using the SMP-114 tablets and placebo tablets, 80 mg of each of the placebo and SMP-114 was orally administered once a day for 7 days by a placebo controlled double-blind method (8 cases of SMP-114 administration and 2 cases of placebo administration: 10 subjects in total).

[3] = tolerance test by a single administration, healthy person Japanese; type: in vivo, human; details: single dose 10, 20, 40, 80 or 120 mg, tablets, hungry, healthy male Japanese
Method: • (1) A single-administration test on healthy male Japanese (20 to 40 years old, body weight: less than 80 kg and not less than 50 kg, degree of corpulence: ±20% or less) was carried out. Using the SMP-114 tablets and a placebo as control, 10, 20, 40, 80 or 120 mg of SMP-114 was administered by a single-blind method when the subjects were hungry (at each dose, 6 cases of SMP-114 administration and 2 cases of placebo administration: 40 subjects in total). As to items of evaluation related to safety, observations about the following were carried out: vital signs (body temperature, blood pressure-pulse rate and respiration rate), 12-induction electrocardiogram, clinical examinations [hematological examination, blood biochemical examination, endocrinological examinations (FT4, FT3 and TSH), serological examination (haptoglobin) and urinalysis], and harmful matters. As items of evaluation related to pharmacokinetics, the concentrations of SMP-114 and its metabolites in serum and urine were measured. […]

[4] = tolerance test by a single administration, healthy male Caucasians; type: in vivo, human; details: single oral dose 10, 20, 40, 60, 80, 100, 120 or 140 mg, suspension, fasted
[5] = repeated administration test on healthy male Caucasians (7 days), serum concentration by LC-MS/MS; type: in vivo, human; details: for AUC(0-t): serum, oral, read-out: AUC0-24 at the steady state
Method: A repeated administration test on healthy male Caucasians of 18 to 50 years old was carried out. Using the SMP-114 tablets and placebo tablets, 80 mg or 120 mg of each of the placebo and SMP-114 was orally administered once a day for 7 days by a placebo controlled double-blind method (at each dose, 8 cases of SMP-114 administration and 2 cases of placebo administration: 20 subjects in total).
The SMP-114 concentration in serum was measured by a LC-MS/MS method by employing the following pretreatment and measuring conditions.
1) To each of the standard sample solutions for calibration curve, the QC sample and the samples to be analyzed was added 10 mL of an internal standard solution (d5-SMP-114 5 ng/mL), and stirred.
2) To the resulting mixture were added 1 mL of 100 mmol/L ammonium acetate buffer (pH 4.0) and then 6 mL of diethyl ether, and stirred for 10 minutes, followed by centrifugation at 4° C. and 3000 rpm for 10 minutes.
3) The supernatant was transferred to a glass tube and concentrated to dryness in a nitrogen stream (40° C.) in an aluminum-blocked thermostatic chamber.
4) To the residue was added 120 μL of 50 vol % acetonitrile and the residue was redissolved with an ultrasonic bath and a Vortex mixer.
5) The solution obtained by the redissolution was transferred to a filter and centrifuged at 5000 rpm for 3 minutes.
6) The filtrate was transferred to an auto-sampler vial to obtain a sample solution for measurement.
LC-MS/MS measurement was carried out under the following conditions. However, parameters (e.g. gas volume and collision voltage) whose optimum values were variable depending on the condition of a mass spectrometer were properly changed.
Mobile phase: eluent A; 0.3 vol % acetic acid eluent B; acetonitrile
• Flow rate: 0.2 ml/min • Analytical column: Puresil C18, 2.1 mm i.d.×150 mm, […] (Waters) • Auto-sampler tray: 4° C. • Column temperature: 35° C. • Valve switching: 0-1.5 min. discard, 1.5-9.0 min. ion source for SMP-114, 9.0-15.0 min. discard • Injecting volume: […] MS/MS Conditions • Ionization method: electro-ion spray method, positive mode • MS/MS mode: SRM (selected reaction monitoring) • Monitor ion: SMP-114 Q1 m/z 395.1→Q3 m/z 199.0 (±25 eV) d5-SMP-114 Q1 m/z 400.2→Q3 m/z 204.0 (−25 eV) • Total scan time: 0.6 second (SMP-114 and d5-SMP-114) • Ionization voltage: 4.5 kV for SMP-114 • Sheath gas: 70 psi (nitrogen gas) • Auxiliary gas: 30 units (nitrogen gas) • Capillary tube temperature: 230° C. • Collision gas: 2.1-2.2 mT (argon) • Multiplier: 1300 V

accumulative property ([2]; 80 mg once a day for 7 days): no accumulative property | AUC(0-t) ([2]; human, serum, 80 mg oral once a day for 7 days, tablets, read-out: AUC0-24 at a steady state): 15300 ng·h/mL | AUC(0-t) ([5]; human, 80 mg treated group, once a day for 7 days, healthy male Caucasians): 10600 ng·h/mL | AUC(0-t) ([5]; human, 120 mg treated group, once a day for 7 days, healthy male Caucasians): 16700 ng·h/mL | accumulative property ([5]; once a day for 7 days, healthy male Caucasians): no accumulative property
SMILES: C[C@@H](c1ccc(-c2ccccc2)c(F)c1)c1cc(/N=C(/N)N2CCOCC2)on1 [SMP-114, 3-[(1S)-1-(2-fluorobiphenyl-4-yl)ethyl]-5-{[amino(morpholin-4-yl)methylene]amino}isoxazole]
dose at which SMP-114 exhibits its efficacy [1]: ≥ 5 mg/kg | tolerance ([2]; 80 mg oral once a day for 7 days): satisfactory | side effects undesirable with respect to tolerance [3]: observed at none of the doses | side effects undesirable with respect to tolerance [4]: observed at none of the doses | side effects undesirable with respect to tolerance ([5]; 80 mg or 120 mg oral once a day for 7 days, healthy male Caucasians): observed at neither of the doses | tolerance ([5]; repeated once-a-day dose of about 120 mg or less, human): satisfactory

From US20070082903A1, “Remedy for rheumatoid arthritis” (priority 2003, published 2007)
